In patent publication EP0018189B1 (priority 1979, dated 1980):

Legend:
[1] = system: poliomyelitis vaccines (Types 1, 2 and 3): Type 1; parameters: species or system guinea pigs; conditions: guinea pig, in vivo
[2] = system: poliomyelitis vaccines (Types 1, 2 and 3): Type 2; type: in vivo; conditions: guinea pigs
[3] = system: poliomyelitis vaccines (Types 1, 2 and 3): Type 3; type: in vivo; conditions: guinea pigs
[4] = undiluted, 1/10 and 1/100 dilutions, determined by comparison of ED50

CCCCCCCCCCCCCCCCCCOC(=O)[C@@H](N)Cc1ccc(O)cc1 [octadecyl tyrosine]
Potency Relative to Unadsorbed Vaccine, Type 1 [1]: 13.8
factor more potent than the vaccine containing aluminum phosphate, type 1 [1]: 5.2
factor more potent than the vaccine containing aluminum phosphate, type 2 [2]: 1.9
Potency Relative to Unadsorbed Vaccine, Type 2 [2, 4]: 3.2
factor more potent than the vaccine containing aluminum phosphate, type 3 [3]: 1.4
Potency Relative to Unadsorbed Vaccine, Type 3 [3, 4]: 8.5
